This note sets out measurements from US20180353472A1, “UNIT DOSE FORMULATIONS FOR USE AS AN ANTI-FUGETACTIC AGENT” (THE GENERAL HOSPITAL CORPORATION d.b.a MASSACHUSETTS …, priority 2015, published 2018).

The subject of test [1] is tumor that expresses high levels of CXCL12. To be noted: mice, subcutaneous, dose between 0.000001% and 65% of the dose appropriate for recruiting stem cells, once a day for 5 days; assessed one to three days after final dose. On the procedure: Mice are injected with tumor cells (subcutaneous injection) from a tumor that expresses high levels of CXCL12 and a tumor is allowed to develop.
One to three days after the final AMD3100 dose, mice are assessed for tumor growth and the reduction or knock down of fugetaxis.

Test [2] relates to breast cancer tumor which over-expresses CXCL12. To be noted: human patient, dose between 0.000001% and 65% of the dose appropriate for recruiting stem cells, once a day for five days, optionally followed by a chemotherapeutic drug. On the procedure: A human patient with a breast cancer tumor which over-expresses CXCL12 is administered AMD3100 at a dose between 0.000001% and 65% of the dose appropriate for recruiting stem cells once a day for five days, optionally followed by a chemotherapeutic drug.

In the case of `c1cc(CN2CCCNCCNCCCNCC2)ccc1CN1CCCNCCNCCCNCC1` [AMD3100, 1, 1′-[1,4-phenylenebis (methylene)]-bis-1,4,8,11-tetraazacyclotetradecane], the “anti-fugetactic effect (reduction or knock down of fugetaxis)” value in test [1] is given as “will have an anti-fugetactic effect”. Besides, in test [2], the “T cell recruitment into the tumor” value was “increased T cell recruitment into the tumor”, the patient survival result is “increase in patient survival” and the tumor volume result is on record as “decrease in tumor volume”.
